Assay results as given in patent US8323622B2, “Ionic complex nanoparticles for detecting heparanase activities and method for preparing the same” (Korea Institute of Science and Technology, priority 2009, dated 2012).

Assays:
heparanase [1] = target: T1, heparanase (Homo sapiens, UniProt Q9Y251); assay: Fluorescence recovery of nanoparticles treated with heparanase or heparanase+inhibitor; assay type: biochemical; details: 37[…], one hour; HS-Cy5.5/GC-BHQ3 probe
T1 sequence (Q9Y251 158-543 limits assumed): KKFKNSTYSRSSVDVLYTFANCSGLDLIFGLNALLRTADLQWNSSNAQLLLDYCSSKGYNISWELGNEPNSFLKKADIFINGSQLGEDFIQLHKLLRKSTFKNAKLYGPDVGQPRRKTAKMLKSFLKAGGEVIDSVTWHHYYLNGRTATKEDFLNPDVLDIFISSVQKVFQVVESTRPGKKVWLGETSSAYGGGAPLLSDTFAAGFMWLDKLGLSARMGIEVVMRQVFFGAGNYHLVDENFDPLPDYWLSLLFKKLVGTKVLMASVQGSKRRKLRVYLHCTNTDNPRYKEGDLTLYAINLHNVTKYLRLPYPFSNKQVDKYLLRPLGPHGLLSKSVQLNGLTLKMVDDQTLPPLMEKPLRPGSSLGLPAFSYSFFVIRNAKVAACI
T1 sequence (Q9Y251 36-109 limits assumed): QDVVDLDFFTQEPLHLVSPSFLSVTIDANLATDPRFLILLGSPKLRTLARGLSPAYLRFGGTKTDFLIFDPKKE
Method: By using the ionic-complex nanoparticles of HS-Cy5.5/GC-BHQ3 prepared in the preparation example 1, heparanase activities with or without heparanase inhibitor treatment were imaged.
The ionic-complex nanoparticles of HS-Cy5.5/GC-BHQ3 prepared in the preparation example 1 were treacted with ‘heparanase’ and ‘heparanase+inhibitor’ at a temperature of 37 °C for one hour, and then fluorescence emission therefrom by an enzyme degradation reaction was observed. After lapse of one hour, the fluorescence of the nanoparticles was observed by using a Kodak Image Station 4000MM Digital Imaging System mounted with a charge coupled device (CCD) camera. […] From the result, it could be seen that the ionic-complex nanoparticles of HS-Cy5.5/GC-BHQ3 could image heparanase enzymes, and could be applied to a composition for screening drugs of heparanase inhibitors or effects of drugs.

heparanase [2] = target: T2, heparanase (Mus musculus, UniProt Q6YGZ1); assay: Imaging of heparanase expression in SCC7 cancer model; assay type: in vivo; details: 20 mg/kg heparin injected into cancer tissues 20 minutes before probe; SCC7 nude mice
T2 construct: It is known that the SCC7 cancer tissues express a large amount of heparanase; from tissue; host or cells: SCC7 tumour tissue in nude mice
T2 sequence (Q6YGZ1 150-535 limits assumed): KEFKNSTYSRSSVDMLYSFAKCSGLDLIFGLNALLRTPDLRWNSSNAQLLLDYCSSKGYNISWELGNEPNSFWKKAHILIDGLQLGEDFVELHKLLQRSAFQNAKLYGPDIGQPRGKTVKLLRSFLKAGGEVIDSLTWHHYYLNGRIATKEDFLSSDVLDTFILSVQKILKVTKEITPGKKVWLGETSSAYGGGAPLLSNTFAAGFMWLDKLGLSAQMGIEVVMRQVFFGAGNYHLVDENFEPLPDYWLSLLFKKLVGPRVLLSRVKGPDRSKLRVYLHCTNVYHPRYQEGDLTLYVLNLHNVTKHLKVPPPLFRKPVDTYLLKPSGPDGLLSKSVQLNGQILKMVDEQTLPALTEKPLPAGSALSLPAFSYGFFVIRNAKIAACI
T2 sequence (Q6YGZ1 28-101 limits assumed): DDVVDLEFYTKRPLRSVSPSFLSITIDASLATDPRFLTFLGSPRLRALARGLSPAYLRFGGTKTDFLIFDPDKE
Method: To establish a cancer model, 1×10^6 SCC7 cancer cells were implanted in nude mice. Here, the SCC7 are epithelial cancer cells, and commercially available from American Type Culture Collection (ATCC). Next, when the cancer has a size of about 5-8 mm, the ionic-complex nanoparticles of HS-Cy5.5/GC-BHQ3 were injected into veins of the mice tails. Then, heparanase expression was imaged by using an eXplore Optix image device.
It is known that the SCC7 cancer tissues express a large amount of heparanase. Accordingly, in order to test the ability of a heparanase inhibitor to inhibit heparanase, 20 mg/kg of heparin was injected into cancer tissues. After lapse of 20 minutes, the ionic-complex nanoparticles of HS-Cy5.5/GC-BHQ3 were injected into veins of the mice tails. Then, decrease of heparanase activities was imaged by using the explore Optix image device.

heparin
fluorescence intensity of nanoparticles when 'heparanase+inhibitor' were treated (heparanase [1]): decreased
fluorescence intensity in cancer tissues of heparanase inhibitor-injected group (heparanase [2]): decreased fluorescence intensity
